We go through ten compounds from ChEMBL document CHEMBL1201862, “PubChem BioAssay data set” (2004).

Common to all, as to assay: NCI anticancer screen, dose series, 48 h
The subject of experiment [1] is SK-OV-3.
In experiment [2] the test system is LOX IMVI.
For experiment [3], the system named is NCI-H23.
In experiment [4] the test system is SK-MEL-2.
In experiment [5] the test system is SF-539.
For experiment [6], the system named is BT-549.
The test system of experiment [7] is HT-29.
For experiment [8], the system named is NCI-H226.
The subject of experiment [9] is SN12C.
In experiment [10] the test system is MDA-MB-435.
Experiment [11] deals with IGROV-1.
Experiment [12] relates to CAKI-1.
The subject of experiment [13] is TK-10.
Experiment [14] concerns M14.
For experiment [15], the system named is PC-3.
In experiment [16] the test system is COLO 205.
For experiment [17], the system named is MDA-N.
The test system of experiment [18] is SF-295.
Experiment [19] relates to UO-31.
In experiment [20] the test system is SNB-75.

Each structure is given as a SMILES string.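 Protocol summary: plate cells (96-well), add compound at 5 concentrations, incubate 48 h, interpolate endpoints linearly. GI50 = concentration required for 50% inhibition of growth.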 The source made the active and inactive calls. No stated cut-off is given here; in the data, active = GI50 up to about 1.1 µM and inactive = higher.

Consider `COc1ccc2c(c1)-c1[nH]c3ccc(OC)cc3c1CC2`, for which the GI50 in experiment [1] is 18.6 µM (inactive); in [2], 15.2 µM (inactive); in experiment [3], 12.9 µM (inactive); in experiment [4], 14.5 µM (inactive); in experiment [5], 18.2 µM (inactive); in [6] it was 17.7 µM (inactive). Also, the GI50 is 12.3 µM (inactive) in experiment [7]; 11.8 µM (inactive) in [8]; 14.8 µM (inactive) in [9]; 17.4 µM (inactive) in experiment [10]; 13.6 µM (inactive) in experiment [11]; 18.8 µM (inactive) in [12]. In addition, the GI50 in experiment [13] was 16.8 µM (inactive); in [14] it was 15 µM (inactive); in experiment [15] it was 11.4 µM (inactive); in experiment [16], 18 µM (inactive); in [17], 14.7 µM (inactive); in experiment [18], 13.1 µM (inactive). Further, the GI50 in experiment [19] is 15.2 µM (inactive); in experiment [20], 13.5 µM (inactive).

As for `CS(=O)(=O)c1nc(-c2cc3c(c(S(C)(=O)=O)n2)CCC3)cc2c1CCC2`, the GI50 in experiment [1], in experiment [2], in [3], in [4], in experiment [5] and in experiment [6] was > 100 µM (inactive) in each case. In addition, the GI50 is > 100 µM (inactive) in experiment [7]; > 100 µM (inactive) in [8]; > 100 µM (inactive) in [9]; > 100 µM (inactive) in [10]; 44.3 µM (inactive) in experiment [11]; > 100 µM (inactive) in experiment [12]. Besides, the GI50 in experiment [13], in experiment [14], in experiment [15], in experiment [16], in [17] and in experiment [18] was > 100 µM (inactive) each time. Moreover, the GI50 is > 100 µM (inactive) in experiment [19] and 22.4 µM (inactive) in [20].

For the compound `CN(O)C(=O)/C=C/c1ccc(OCc2cccc(Cl)c2)cc1`, the GI50 in experiment [1] was 25.6 µM (inactive); in experiment [2] it was 11.2 µM (inactive); in [3], 16.3 µM (inactive); in experiment [4] it was 23.8 µM (inactive); in experiment [5], 29.2 µM (inactive); in experiment [6] it was 21.8 µM (inactive). In addition, the GI50 in experiment [7] was 18 µM (inactive); in experiment [8], 21.4 µM (inactive); in [9], 20.1 µM (inactive); in experiment [10], 32.2 µM (inactive); in experiment [11], 17.3 µM (inactive); in [12], 26.4 µM (inactive). Besides, the GI50 in experiment [13] was 48.6 µM (inactive); in [14], 28 µM (inactive); in [15], 24.5 µM (inactive); in experiment [16] it was 28.9 µM (inactive); in [17], 43.1 µM (inactive); in experiment [18], 22.8 µM (inactive). The figures for the GI50 in experiment [19] and in experiment [20] were 10.1 µM (inactive) and 26.4 µM (inactive), respectively.

Consider `O=[N+]([O-])C1=Cc2c(O)ccc(O)c2C2OC=CC12` (stereo not given), for which the GI50 was > 60.4 µM (inactive) in experiment [1]; 15.7 µM (inactive) in experiment [2]; 15.5 µM (inactive) in [3]; 18.7 µM (inactive) in [4]; 22.2 µM (inactive) in [5]; 14.6 µM (inactive) in experiment [6]. The GI50 is 19.6 µM (inactive) in [7]; 30.7 µM (inactive) in experiment [8]; 18.2 µM (inactive) in experiment [9]; 2.4 µM (inactive) in experiment [10]; 19.4 µM (inactive) in [11]; 13.1 µM (inactive) in experiment [12]. Moreover, the GI50 in experiment [13] is 16.6 µM (inactive); in experiment [14], 18 µM (inactive); in experiment [15], 14.7 µM (inactive); in [16] it was 27 µM (inactive); in experiment [17], 5.97 µM (inactive); in experiment [18], 16.3 µM (inactive). In addition, the GI50 in experiment [19] is 14.6 µM (inactive); in experiment [20] it was 21.6 µM (inactive).

Turning to `COC1=CC(=O)C(C2CC(=O)c3c(O)cc(O)cc3O2)=CC1=O` (stereo not given), the GI50 in [1] was 36.8 µM (inactive); in [2], 16.3 µM (inactive); in [3], 20.5 µM (inactive); in experiment [4] it was 17.4 µM (inactive); in experiment [5], 20.7 µM (inactive); in experiment [6] it was 19.8 µM (inactive). Moreover, the GI50 in experiment [7] was > 45.1 µM (inactive); in experiment [8], 19.4 µM (inactive); in [9] it was 19.8 µM (inactive); in [10] it was 16.2 µM (inactive); in [11], 19.1 µM (inactive); in [12], 18 µM (inactive). The GI50 in [13] was 16.9 µM (inactive); in [14] it was 17.7 µM (inactive); in experiment [15], 16.5 µM (inactive); in experiment [16], 17.9 µM (inactive); in experiment [17] it was 15.6 µM (inactive); in [18], 19.2 µM (inactive). Moreover, the results for the GI50 in [19] and in [20] were 18 µM (inactive) and 23.6 µM (inactive), respectively.

`CCOC(=O)c1nc2cc(Cl)ccc2[nH]c1=O`: the GI50 in experiment [1], in experiment [2], in [3], in experiment [4], in experiment [5] and in experiment [6] was > 100 µM (inactive) in each case. Also, the GI50 in experiment [7], in experiment [8], in experiment [9], in experiment [10], in experiment [11] and in experiment [12] was > 100 µM (inactive) throughout. For the same compound, the GI50 in experiment [13], in experiment [14], in experiment [15], in [16], in experiment [17] and in experiment [18] was > 100 µM (inactive) throughout. The GI50 was > 100 µM (inactive) in experiment [19] and < 0.01 µM (active) in experiment [20].

Consider `CC[C@@]1(O)C(=O)OCc2c1cc1n(c2=O)Cc2c-1nc1ccc(O)cc1c2CC[Si](C)(C)C`, for which the GI50 in experiment [1] is < 0.001 µM (active); in experiment [2] it was < 0.001 µM (active); in [3], < 0.001 µM (active); in [4], 0.1 µM (active); in experiment [5], < 0.001 µM (active); in [6] it was 0.0205 µM (active). For the same compound, the GI50 in [7] was 0.012 µM (active); in experiment [8] it was 0.0194 µM (active); in [9], < 0.001 µM (active); in experiment [10], 0.00766 µM (active); in experiment [11], 0.0248 µM (active); in experiment [12] it was < 0.001 µM (active). For the same compound, the GI50 in experiment [13] is 0.0385 µM (active); in experiment [14] it was < 0.001 µM (active); in experiment [15] it was 0.141 µM (active); in experiment [16], 0.149 µM (active); in [17], 0.0133 µM (active); in experiment [18] it was 0.00131 µM (active). Further, the GI50 in experiment [19] is 0.00497 µM (active); in [20], < 0.001 µM (active).

Turning to `CCC(C)[C@H](NC(=O)N[C@H](C)c1ccccc1)C(=O)OC` (stereo not given in full), the GI50 is > 100 µM (inactive) in experiment [1]; > 100 µM (inactive) in experiment [2]; > 100 µM (inactive) in experiment [3]; > 100 µM (inactive) in [4]; 25.8 µM (inactive) in experiment [5]; > 100 µM (inactive) in [6]. Further, the GI50 in experiment [7], in experiment [8], in experiment [9], in [10], in experiment [11] and in [12] was > 100 µM (inactive) each time. The GI50 in experiment [13], in [14], in experiment [15], in experiment [16], in experiment [17] and in experiment [18] was > 100 µM (inactive) throughout. For the same compound, the GI50 in experiment [19] and in experiment [20] was > 100 µM (inactive) throughout.

In the case of `CCOC(=O)CCC(NC(=O)c1ccc(OCc2nc3ccccc3n3cccc23)cc1)C(=O)OCC` (stereo not given), the GI50 in [1] is > 100 µM (inactive); in experiment [2], 42.8 µM (inactive); in experiment [3], 29.9 µM (inactive); in experiment [4], > 100 µM (inactive); in experiment [5], 46.8 µM (inactive); in [6] it was 71.9 µM (inactive). For the same compound, the GI50 in [7] is 25.5 µM (inactive); in experiment [8], > 100 µM (inactive); in experiment [9], > 100 µM (inactive); in [10], 80.4 µM (inactive); in experiment [11] it was 31.6 µM (inactive); in experiment [12], > 100 µM (inactive). For the same compound, the GI50 in experiment [13] is > 100 µM (inactive); in experiment [14], 63.2 µM (inactive); in experiment [15], 26.6 µM (inactive); in experiment [16], > 100 µM (inactive); in experiment [17] it was > 100 µM (inactive); in experiment [18] it was 64.3 µM (inactive). Also, the figures for the GI50 in experiment [19] and in [20] were > 100 µM (inactive) and 29.2 µM (inactive), respectively.

With `CCc1c(CNc2ccc(C(=O)NC(CC(=O)O)C(=O)O)cc2)ccc2nc(N)nc(N)c12` (stereo not given), the GI50 in experiment [1] is > 20 µM (inactive); in [2], < 0.0162 µM (active); in experiment [3] it was < 0.0291 µM (active); in experiment [4] it was > 100 µM (inactive); in [5], < 0.0292 µM (active); in experiment [6], 25.4 µM (inactive). In addition, the GI50 in experiment [7] is < 0.0178 µM (active); in [8], > 100 µM (inactive); in experiment [9] it was < 0.0288 µM (active); in experiment [10] it was < 0.01 µM (active); in experiment [11], < 0.0177 µM (active); in experiment [12], < 0.0198 µM (active). Also, the GI50 in experiment [13] was 15.3 µM (inactive); in [14], < 0.01 µM (active); in experiment [15], 305 µM (inactive); in experiment [16] it was 16.7 µM (inactive); in experiment [17] it was < 0.01 µM (active); in experiment [18], 0.0371 µM (active). The GI50 was 0.75 µM (active) in experiment [19] and 3.52 µM (inactive) in [20].
